Test results reported in patent publication US20100234226A1, “HERBICIDE COMBINATION COMPRISING DIMETHOXYTRIAZINYL-SUBSTITUTED DIFLUOROMETHANESULFONYLANILIDES” (BAYER CROPSCIENCE AG, priority 2008, published 2010).
Like-named read-outs stand apart in the source and are kept apart here.

Tests used:
Type in all cases: in vivo
[1] = system: Amaranthus retroflexus (AMARE); test: Post-emergence action against weeds, greenhouse pot test, Amaranthus retroflexus; conditions: read-out: % activity found; for inhibition at 12 g/ha: 12 g of ai/ha; for inhibition at 36 g/ha: 36 g of ai/ha
Procedure: (§1) Seeds or rhizome pieces of mono- and dicotyledonous harmful and useful plants were placed in peat pots (diameter 4 cm) filled with sandy loam and then covered with soil. The pots were kept in a greenhouse under optimum conditions. In addition, harmful plants encountered in paddy rice cultivation were cultivated in pots with a water level 2 cm above the soil surface.
(§2) About three weeks after the start of the cultivation, the test plants were treated at the 2- to 3-leaf stage. The herbicides, formulated as powder or liquid concentrates, were, either alone or in the combinations according to the invention, sprayed in various dosages on to the green parts of the plants using an application rate of 600 l of water/ha (converted). For further cultivation of the plants, the pots were then again kept under optimum conditions in a greenhouse.
(§3) The visual scoring of the herbicidal effects was carried out in intervals up to 21 days after the treatment. Scoring was carried out in percent in comparison to the untreated control plants. 0%=no herbicidal activity, 100%=complete herbicidal activity=complete kill.
(§4) The percentages from the treatments with the herbicides alone (=individual application) and with the combinations according to the invention (=mixtures) were employed to calculate interactions using the method of Colby. When the observed efficacies of the mixtures exceed the formal sum of the values of the tests with individual applications, they also exceed the expected value according to Colby, which is calculated using the formula below (cf. S. R. Colby; in Weeds 15 (1967) pp. 20 to 22):
(§5) Here: • A, B=activity of components A and B in percent at a dosage of a and b g of ai/ha (=gramm of active substance per hectare), respectively. • E=expected value in % at a dosage of a+b g of ai/ha.
(§6) The combinations according to the invention of herbicides from group (A) with herbicides from group (B) were tested on a broad spectrum of important harmful plants (weed grasses, broad-leaved weeds/Cyperaceae) and useful plants: Triticum aestivum (TRZAS), Stellaria media (STEME), Lolium multiflorum (LOLMU), Veronica persica (VERPE), Alopecurus myosuroides (ALOMY), Matricaria inodora (MATIN), Brassica napus (BRSNW), Viola tricolor (VIOTR), Avena fatua (AVEFA), Amaranthus retroflexus (AMARE), Zea mays (ZEAMX), Pharbitis purpurea (PHBPU), Setaria viridis (SETVI), Fallopia (ex Polygonum) convolvulus (POLCO), Echinochloa crus-gaffi (ECHCG), Abuthilon theophrasti (ABUTH), Cyperus esculentus (CYPES), Oryza sativa (ORYSA).
(§7) Of particular interest are the results shown in the tables (Tab.) below, where the following key is used: • (1) EPPO code (former Bayer code) for the treated plant (see above) • (2) Time of scoring: DAT (days after treatment) • (3) Component A tested (identifying number) • (4) Component B tested (identifying number) • (5) Dosage component A [g of ai/ha] • (6) Dosage component B [g of ai/ha] • (7) % activity found • (8) E value (calculated according to Colby; see above) • (9) Comments: “SYNERGY”=synergistic interaction (E value <% activity found); “SAFENING”=safener action on useful plant (E value >% activity found)

[2] = system: Viola tricolor (VIOTR); test: Post-emergence action against weeds, greenhouse pot test, Viola tricolor; conditions: Viola tricolor, post-emergence, read-out: % activity found; for inhibition at 12 g/ha: 12 g of ai/ha
Procedure: as §1, §2, §3, §4, §5, §6, §7

[3] = system: Oryza sativa (ORYSA); test: Post-emergence action against weeds, greenhouse pot test, Oryza sativa; conditions: 240 h, 10 DAT, read-out: % activity found
Procedure: as §1
as §2, with “greenhouse. […]” for “greenhouse.”
as §4, with “22): […]” for “22):”

[4] = system: Avena fatua (AVEFA); test: Post-emergence action against weeds, greenhouse pot test, Avena fatua; conditions: read-out: % activity found; for inhibition at 100 g/ha: 100 g of ai/ha
Procedure: as §1, §2, §3, §4
(§8) Here: • A, B=activity of components A and B in percent at a dosage of a and b g of ai/ha (=gramm of active substance per hectare), respectively. • E=expected value in % at a dosage of a+b g of ai/ha. […]
as §7

[5] = system: Pharbitis purpurea (PHBPU); test: Post-emergence action against weeds, greenhouse pot test, Pharbitis purpurea; conditions: Ipomoea purpurea, read-out: % activity found; for inhibition at 12 g/ha: 12 g of ai/ha
Procedure: as §1, §2, §3, §4, §5, §6, §7

[6] = system: Cyperus esculentus (CYPES); test: Post-emergence action against weeds, greenhouse pot test, Cyperus esculentus; conditions: Cyperus esculentus, post-emergence, read-out: % activity found; for inhibition at 12 g/ha: 12 g of ai/ha
Procedure: as §1, §2, §3, §4, §5

[7] = system: Matricaria inodora (MATIN); test: Post-emergence action against weeds, greenhouse pot test, Matricaria inodora; conditions: Tripleurospermum inodorum, post-emergence, read-out: % activity found; for inhibition at 36 g/ha: 36 g of ai/ha
Procedure: as §1, §2, §3, §4, §5

[8] = system: Lolium multiflorum (LOLMU); test: Post-emergence action against weeds, greenhouse pot test, Lolium multiflorum; conditions: 12 g of ai/ha, read-out: % activity found
Procedure: as §1, §2, §3, §4, §5, §6, §7

[9] = system: Zea mays (ZEAMX); test: Post-emergence action against weeds, greenhouse pot test, Zea mays; conditions: Zea mays, post-emergence, read-out: % activity found; for inhibition at 12 g/ha: 12 g of ai/ha; for inhibition at 36 g/ha: 36 g of ai/ha
Procedure: as §1, §2, §3, §4, §5, §6, §7

[10] = system: Setaria viridis (SETVI); test: Post-emergence action against weeds, greenhouse pot test, Setaria viridis; conditions: 504 h, 21 DAT, read-out: % activity found
Procedure: as §1, §2, §3, §4, §8

[11] = system: Fallopia (ex Polygonum) convolvulus (POLCO); test: Post-emergence action against weeds, greenhouse pot test, Fallopia convolvulus; conditions: Fallopia convolvulus, post-emergence, 504 h, 21 DAT, read-out: % activity found
Procedure: as §1, §2, §3, §4, §5, §6, §7

[12] = system: Triticum aestivum (TRZAS); test: Post-emergence action against weeds, greenhouse pot test, Triticum aestivum; conditions: 504 h, 21 DAT, read-out: % activity found
Procedure: as §1, §2, §3, §4, §8

[13] = system: Veronica persica (VERPE); test: Post-emergence action against weeds, greenhouse pot test, Veronica persica; conditions: read-out: % activity found; for inhibition at 12 g/ha: 12 g of ai/ha; for inhibition at 36 g/ha: 36 g of ai/ha
Procedure: as §1, §2, §3, §4, §5, §6, §7

[14] = system: Alopecurus myosuroides (ALOMY); test: Post-emergence action against weeds, greenhouse pot test, Alopecurus myosuroides; conditions: 504 h, 21 DAT, 100 g of ai/ha, read-out: % activity found
Procedure: as §1
as §2, with “greenhouse. […]” for “greenhouse.”
as §4, with “22): […]” for “22):”

How did the inhibition at 12 g/ha ([1]; 240 h, 10 DAT) turn out when `Cc1ccccc1CO[C@@H]1C[C@@]2(C(C)C)CC[C@]1(C)O2` (racemic) [B-24, exo-(±)-1-methyl-4-(1-methylethyl)-2-[(2-methylphenyl)methoxy]-7-oxabicyclo[2.2.1]heptane] was run?
The inhibition at 12 g/ha was 0%.

And the inhibition at 36 g/ha ([1]; 240 h, 10 DAT)?
The inhibition at 36 g/ha was 0%.

And the inhibition at 12 g/ha ([1]; 504 h, 21 DAT)?
The inhibition at 12 g/ha was 0%.

And the inhibition at 36 g/ha ([1]; 504 h, 21 DAT)?
The inhibition at 36 g/ha was 0%.

What about the inhibition at 12 g/ha ([2]; 240 h, 10 DAT) of the same compound?
Its inhibition at 12 g/ha is 0%.

What about the inhibition at 36 g/ha ([2]; 240 h, 10 DAT, 36 g of ai/ha) of the same compound?
Its inhibition at 36 g/ha is 0%.

And the inhibition at 12 g/ha ([2]; 504 h, 21 DAT)?
The inhibition at 12 g/ha was 0%.

What about the inhibition at 12 g/ha ([3]; 12 g of ai/ha) of the same compound?
Its inhibition at 12 g/ha is 0%.

What about the inhibition at 36 g/ha ([3]; 36 g of ai/ha) of the same compound?
Its inhibition at 36 g/ha is 20%.

What about the inhibition at 12 g/ha ([4]; 504 h, 21 DAT, 12 g of ai/ha) of the same compound?
Its inhibition at 12 g/ha is 0%.

And the inhibition at 12 g/ha ([5]; 240 h, 10 DAT)?
Its inhibition at 12 g/ha is 0%.

What about the inhibition at 12 g/ha ([5]; 504 h, 21 DAT) of the same compound?
The inhibition at 12 g/ha was 0%.

And the inhibition at 36 g/ha ([5]; 504 h, 21 DAT, 36 g of ai/ha)?
Its inhibition at 36 g/ha is 0%.

What about the inhibition at 12 g/ha ([6]; 240 h, 10 DAT) of the same compound?
Its inhibition at 12 g/ha is 0%.

What about the inhibition at 12 g/ha ([6]; 504 h, 21 DAT) of the same compound?
The inhibition at 12 g/ha was 0%.

And the inhibition at 36 g/ha ([6]; 504 h, 21 DAT, 36 g of ai/ha)?
Its inhibition at 36 g/ha is 20%.

What about the inhibition at 36 g/ha ([7]; 240 h, 10 DAT) of the same compound?
The inhibition at 36 g/ha was 0%.

What about the inhibition at 12 g/ha ([7]; 504 h, 21 DAT, 12 g of ai/ha) of the same compound?
The inhibition at 12 g/ha was 0%.

And the inhibition at 36 g/ha ([7]; 504 h, 21 DAT)?
Its inhibition at 36 g/ha is 0%.

What about the inhibition at 12 g/ha ([8]; 240 h, 10 DAT) of the same compound?
The inhibition at 12 g/ha was 40%.

And the inhibition at 12 g/ha ([8]; 504 h, 21 DAT)?
Its inhibition at 12 g/ha is 20%.

And the inhibition at 12 g/ha ([9]; 240 h, 10 DAT)?
The inhibition at 12 g/ha was 0%.

What about the inhibition at 36 g/ha ([9]; 240 h, 10 DAT) of the same compound?
The inhibition at 36 g/ha was 20%.

And the inhibition at 12 g/ha ([9]; 504 h, 21 DAT)?
Its inhibition at 12 g/ha is 0%.

What about the inhibition at 36 g/ha ([9]; 504 h, 21 DAT) of the same compound?
Its inhibition at 36 g/ha is 0%.

What about the inhibition at 12 g/ha ([10]; 12 g of ai/ha) of the same compound?
Its inhibition at 12 g/ha is 30%.

What about the inhibition at 36 g/ha ([10]; 36 g of ai/ha) of the same compound?
Its inhibition at 36 g/ha is 50%.

What about the inhibition at 12 g/ha ([11]; 12 g of ai/ha) of the same compound?
The inhibition at 12 g/ha was 0%.

What about the inhibition at 36 g/ha ([11]; 36 g of ai/ha) of the same compound?
The inhibition at 36 g/ha was 0%.

What about the inhibition at 12 g/ha ([12]; 12 g of ai/ha) of the same compound?
The inhibition at 12 g/ha was 0%.

What about the inhibition at 36 g/ha ([12]; 36 g of ai/ha) of the same compound?
Its inhibition at 36 g/ha is 10%.

What about the inhibition at 12 g/ha ([13]; 240 h, 10 DAT) of the same compound?
The inhibition at 12 g/ha was 0%.

What about the inhibition at 36 g/ha ([13]; 240 h, 10 DAT) of the same compound?
Its inhibition at 36 g/ha is 0%.

What about the inhibition at 12 g/ha ([13]; 504 h, 21 DAT) of the same compound?
Its inhibition at 12 g/ha is 0%.

What about the inhibition at 36 g/ha ([13]; 504 h, 21 DAT) of the same compound?
Its inhibition at 36 g/ha is 0%.

With `CC1(C)CON(Cc2ccccc2Cl)C1=O` [B-26, 2-[(2-chlorophenyl)methyl]-4,4-dimethyl-3-isoxazolidinone] as the compound, how does the inhibition at 300 g/ha ([2]; 240 h, 10 DAT, 300 g of ai/ha) read?
Its inhibition at 300 g/ha is 50%.

What about the inhibition at 100 g/ha ([4]; 240 h, 10 DAT) of the same compound?
The inhibition at 100 g/ha was 10%.

What about the inhibition at 100 g/ha ([4]; 504 h, 21 DAT) of the same compound?
Its inhibition at 100 g/ha is 10%.

And the inhibition at 300 g/ha ([4]; 504 h, 21 DAT, 300 g of ai/ha)?
Its inhibition at 300 g/ha is 30%.

And the inhibition at 100 g/ha ([5]; 504 h, 21 DAT, 100 g of ai/ha)?
The inhibition at 100 g/ha was 0%.

What about the inhibition at 300 g/ha ([5]; 504 h, 21 DAT, 300 g of ai/ha) of the same compound?
The inhibition at 300 g/ha was 0%.

And the inhibition at 100 g/ha ([6]; 504 h, 21 DAT, 100 g of ai/ha)?
The inhibition at 100 g/ha was 0%.

What about the inhibition at 300 g/ha ([6]; 504 h, 21 DAT, 300 g of ai/ha) of the same compound?
Its inhibition at 300 g/ha is 0%.

And the inhibition at 100 g/ha ([7]; 10/21 DAT, 100 g of ai/ha)?
Its inhibition at 100 g/ha is 40%.

What about the inhibition at 100 g/ha [14] of the same compound?
The inhibition at 100 g/ha was 0%.

And the inhibition at 100 g/ha ([9]; 504 h, 21 DAT, 100 g of ai/ha)?
Its inhibition at 100 g/ha is 0%.

What about the inhibition at 300 g/ha ([9]; 504 h, 21 DAT, 300 g of ai/ha) of the same compound?
The inhibition at 300 g/ha was 30%.
